In US11472803B2, “7-substituted 1-aryl-naphthyridine-3-carboxylic acid amides and use thereof” (Bayer Aktiengesellschaft, priority 2016, dated 2022):

Experiments:
human M2 receptor [1] = target: T1, human M2 receptor (Homo sapiens, UniProt P08172); test: Functional M2-GIRK1/4 activation test: positive cooperativity (α factor), shift of acetylcholine dose-response curve; format: cell-based; conditions: Allosteric EC50 shift of acetylcholine 8-point dose-response curve; CHO-DUKX-M2-GIRK cells; α>1 = positive cooperativity
T1 construct: expressed in transfected cells; host or cells: CHO-DUKX (CHO-DUKX-M2-GIRK)
T1 sequence (P08172 1-466): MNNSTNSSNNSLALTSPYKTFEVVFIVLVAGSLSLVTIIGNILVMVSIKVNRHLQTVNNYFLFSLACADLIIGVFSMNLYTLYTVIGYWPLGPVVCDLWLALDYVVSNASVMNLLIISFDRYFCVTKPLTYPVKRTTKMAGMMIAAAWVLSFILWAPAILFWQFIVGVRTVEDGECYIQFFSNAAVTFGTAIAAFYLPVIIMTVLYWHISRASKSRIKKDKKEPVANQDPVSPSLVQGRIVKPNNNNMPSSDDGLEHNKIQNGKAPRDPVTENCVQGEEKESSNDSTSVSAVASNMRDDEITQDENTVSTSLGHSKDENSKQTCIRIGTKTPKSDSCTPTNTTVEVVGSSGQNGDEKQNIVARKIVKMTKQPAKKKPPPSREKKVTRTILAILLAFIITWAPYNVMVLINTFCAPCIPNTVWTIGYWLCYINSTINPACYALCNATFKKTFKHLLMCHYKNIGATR
Excerpt: The binding of orthosteric agonists (endogenous ligand: acetylcholine) to the M2 receptor leads to receptor activation or a change in conformation of the receptor in the manner of a shift in equilibrium in favour of the active receptor conformation.
The agonist-induced change in conformation of the M2 receptor results in a Gαi protein activation. […] Under physiological conditions, the result is then a selective efflux of potassium from the cell along the electrochemical gradient. […] The extent of hyperpolarization can therefore be regarded as a measure of the activation of the M2 receptor.
The test cell used is a recombinant CHO-DUKX cell line which has been stably transfected with cDNA coding for the human M2 receptor and with cDNA coding for both GIRK1/4 subunits (CHO-DUKX-M2-GIRK). The transmembrane potential, or the relative changes in the transmembrane potential as a function of substance addition or M2 activation, is determined by means of a voltage-sensitive dye (FLIPR Membrane Potential Assay Kit Blue, Molecular Devices #R8034) and the measurement of cell fluorescence using a proprietary fluorescence imaging instrument.
In accordance with the desired test concentrations, the substances were pre-diluted in loading buffer (see above).
The sowing medium consisted of MEM alpha medium (supplemented with 5% PCS, 2% Glutamax, no genticin).
For the particular measurement, the medium was removed and the cells were laden with the volt-age-sensitive dye for at least 6 min at room temperature (30 μl of loading buffer per 384-well). This was followed, in a first measurement, by the determination of the resting transmembrane potential for a period of 5 sec in 1 sec increments. Thereafter, 10 μl in each case of the test substances diluted in loading buffer are added, followed by a second measurement to determine the transmembrane potential for a period of 50 sec in 1 sec increments.
Finally, the cells are admixed with 10 μl of agonist solution (acetylcholine dissolved in loading buffer). In contrast to the EC50 determination of the test substances (see B-1.1), however, this is not done using one acetylcholine concentration; instead, every concentration of the test substance is combined with an acetylcholine 8-point dose-response curve. […] The M2-mediated GIRK1/4 activation or hyperpolarization is then monitored in a third measurement over a period of 60 sec in 1 sec increments. The shift in the acetylcholine dose-response curve in the presence of increasing concentrations of the test substance is analysed and quantified by means of GraphPad PRISM (Allosteric EC50 shift). […] Positive cooperativity is the hallmark of a positive allosteric modulator. […] The greater the magnitude of the α value, the greater the extent of cooperativity between orthosteric and allosteric.

human M2 receptor [2] = target: T1, human M2 receptor; test: Functional M2-GIRK1/4 activation test: allosteric potency (EC50) and efficiency at EC20 acetylcholine; format: cell-based; conditions: CHO-DUKX-M2-GIRK cells; for EC50: voltage-sensitive dye, acetylcholine at EC20, in some cases mean of two or more determinations; for Emax / Efficiency: boosting of the acetylcholine effect at EC20 acetylcholine concentration
Method in brief: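 CHO-DUKX cells stably expressing human M2 and GIRK1/4; membrane potential tracked with voltage-sensitive dye at room temperature. Compound added 50 s before acetylcholine at its EC20, then hyperpolarization read 60 s. EC50 (allosteric potency) and efficiency (boost of EC20 ACh effect) from 4-parameter Hill fit.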

Compound	Cooperativity (alpha factor) (human M2 receptor [1])	EC50 (human M2 receptor [2])	Emax (human M2 receptor [2])	Efficiency (human M2 receptor [2])
O=C(N[C@@H](C1CC1)C(F)(F)F)c1cn(-c2c(F)cc(F)cc2F)c2nc(N3C[C@@H](O)[C@H](O)C3)c(Br)cc2c1=O [Example 160, 6-Bromo-N-[(1S)-1-cyclopropyl-2,2,2-trifluoroethyl]-7-[(3R,4R)-3,4-dihydroxypyrrolidin-1-yl]-4-oxo-1-(2,4,6-trifluorophenyl)-1,4-dihydro-1,8-naphthyridine-3-carboxamide]	38	7.3 nM	100%	–
CCC(COC(F)(F)F)NC(=O)c1cn(-c2c(F)cc(F)cc2F)c2nc(N3C[C@@H](O)[C@H](O)C3)c(F)cc2c1=O (single isomer, unassigned) [Example 31]	37	4.15 nM	100%	–
O=C(N[C@@H](C1CC1)C(F)(F)F)c1cn(-c2c(F)cc(F)cc2F)c2nc(N3CC[C@H](O)C3)c(F)cc2c1=O [Example 108, N-[(1S)-1-Cyclopropyl-2,2,2-trifluoroethyl]-6-fluoro-7-[(3S)-3-hydroxypyrrolidin-1-yl]-4-oxo-1-(2,4,6-trifluorophenyl)-1,4-dihydro-1,8-naphthyridine-3-carboxamide]	47	5.4 nM	96%	–
CC(C)C[C@H](NC(=O)c1cn(-c2c(F)cc(F)cc2F)c2nc(N3CC(O)[C@H](O)C3)c(F)cc2c1=O)C(F)(F)F (stereo in doubt) [Example 11, 7-[(3R,4S)-3,4-dihydroxypyrrolidin-1-yl]-6-fluoro-4-oxo-N-[(2S)-1,1,1-trifluoro-4-methylpentan-2-yl]-1-(2,4,6-trifluorophenyl)-1,4-dihydro-1,8-naphthyridine-3-carboxamide]	60	5.8 nM	100%	–
CC(C)(NC(=O)c1cn(-c2c(F)cc(F)cc2F)c2nc(N3C[C@@H](O)[C@H](O)C3)c(F)cc2c1=O)C(F)(F)F [Example 23, 7-[(3R,4R)-3,4-dihydroxypyrrolidin-1-yl]-6-fluoro-4-oxo-N-(1,1,1-trifluoro-2-methylpropan-2-yl)-1-(2,4,6-trifluorophenyl)-1,4-dihydro-1,8-naphthyridine-3-carboxamide]	41	5.5 nM	100%	–
CC(C)(NC(=O)c1cn(-c2c(F)cc(F)cc2F)c2nc(N3C[C@@H](O)[C@H](O)C3)c(F)cc2c1=O)C1CC1 [Example 25, N-(2-cyclopropylpropan-2-yl)-7-[(3R,4R)-3,4-dihydroxypyrrolidin-1-yl]-6-fluoro-4-oxo-1-(2,4,6-trifluorophenyl)-1,4-dihydro-1,8-naphthyridine-3-carboxamide]	45	4.05 nM	95%	–
O=C(NC(C(F)(F)F)C(F)(F)F)c1cn(-c2c(F)cc(F)cc2F)c2nc(N3C[C@@H](O)[C@H](O)C3)c(F)cc2c1=O [Example 144, 7-[(3R,4R)-3,4-Dihydroxypyrrolidin-1-yl]-6-fluoro-N-(1,1,1,3,3,3-hexafluoropropan-2-yl)-4-oxo-1-(2,4,6-trifluorophenyl)-1,4-dihydro-1,8-naphthyridine-3-carboxamide]	67	4.5 nM	98%	–
CC(C)(NC(=O)c1cn(-c2c(F)cc(F)cc2Cl)c2nc(N3C[C@@H](O)[C@H](O)C3)c(F)cc2c1=O)C(F)(F)F [Example 41, 1-(2-chloro-4,6-difluorophenyl)-7-[(3R,4R)-3,4-dihydroxypyrrolidin-1-yl]-6-fluoro-4-oxo-N-(1,1,1-trifluoro-2-methylpropan-2-yl)-1,4-dihydro-1,8-naphthyridine-3-carboxamide]	37	3.3 nM	100%	–
CC(C)(NC(=O)c1cn(-c2c(F)cc(F)cc2F)c2nc(N3C[C@@H](O)[C@H](O)C3)c(Br)cc2c1=O)C(F)(F)F [Example 159, 6-Bromo-7-[(3R,4R)-3,4-dihydroxypyrrolidin-1-yl]-4-oxo-N-(1,1,1-trifluoro-2-methylpropan-2-yl)-1-(2,4,6-trifluorophenyl)-1,4-dihydro-1,8-naphthyridine-3-carboxamide]	45	7.1 nM	100%	–
O=C(N[C@@H](C1CC1)C(F)(F)F)c1cn(-c2c(F)cc(F)cc2Cl)c2nc(N3CC(CO)(CO)C3)c(F)cc2c1=O (single isomer, unassigned) [Example 71]	26	4.2 nM	–	94%
O=C(N[C@@H](C1CC1)C(F)(F)F)c1cn(-c2c(F)cc(F)cc2F)c2nc(N3CC(CO)(CO)C3)c(F)cc2c1=O [Example 84, 7-[3,3-Bis(hydroxymethyl)azetidin-1-yl]-N-[(1S)-1-cyclopropyl-2,2,2-trifluoroethyl]-6-fluoro-4-oxo-1-(2,4,6-trifluorophenyl)-1,4-dihydro-1,8-naphthyridine-3-carboxamide]	39	8.35 nM	88%	–
O=C(NC(C1CC1)C(F)(F)C(F)(F)F)c1cn(-c2c(F)cc(F)cc2F)c2nc(N3CC(CO)(CO)C3)c(F)cc2c1=O (single isomer, unassigned) [Example 205, 7-[3,3-bis(hydroxymethyl)azetidin-1-yl]-N-[1-cyclopropyl-2,2,3,3,3-pentafluoropropyl]-6-fluoro-4-oxo-1-(2,4,6-trifluorophenyl)-1,4-dihydro-1,8-naphthyridine-3-carboxamide]	25	3.1 nM	100%	–
CC(NC(=O)c1cn(-c2c(F)cc(F)cc2F)c2nc(N3CC[C@H](O)C3)c(F)cc2c1=O)C(F)(F)C(F)(F)F (mixture of isomers) [Example 112, 6-Fluoro-7-[(3S)-3-hydroxypyrrolidin-1-yl]-4-oxo-N-[3,3,4,4,4-pentafluorobutan-2-yl]-1-(2,4,6-trifluorophenyl)-1,4-dihydro-1,8-naphthyridine-3-carboxamide]	33	4.25 nM	100%	–
O=C(NC(C(F)(F)F)C(F)(F)F)c1cn(-c2c(F)cc(F)cc2F)c2nc(N3CC(CO)(CO)C3)c(F)cc2c1=O [Example 230, 7-[3,3-bis(hydroxymethyl)azetidin-1-yl]-6-fluoro-N-(1,1,1,3,3,3-hexafluoropropan-2-yl)-4-oxo-1-(2,4,6-trifluorophenyl)-1,4-dihydro-1,8-naphthyridine-3-carboxamide]	36	9.7 nM	97%	–
CC[C@H](NC(=O)c1cn(-c2c(F)cc(F)cc2F)c2nc(N3C[C@@H](O)[C@H](O)C3)c(F)cc2c1=O)C(F)(F)F [Example 6, 7-[(3R,4R)-3,4-Dihydroxypyrrolidin-1-yl]-6-fluoro-4-oxo-N-[(2S)-1,1,1-trifluorobutan-2-yl]-1-(2,4,6-trifluorophenyl)-1,4-dihydro-1,8-naphthyridine-3-carboxamide]	58	6.17 nM	94%	–
CCC(COC(F)(F)F)NC(=O)c1cn(-c2c(F)cc(F)cc2F)c2nc(N3C[C@@H](O)[C@H](O)C3)c(F)cc2c1=O (single isomer, unassigned) [Example 32]	54	4.3 nM	–	100%
